Measurements reported in patent US20120301551A1, “COMPOUNDS AND COMPOSITIONS FOR TREATING NEURONAL DEATH OR NEUROLOGICAL DYSFUNCTION” (Neurotech Pharmaceuticals Co., Ltd., priority 2005, published 2012).

Test system: G93A mouse
Experiment: microglia number and activation in G93A mouse (TOMATO Lectin)
Format: in vivo
Settings: 5 mg/kg/day or 20 mg/kg/day; lumbar ventral horn
Method: Number and activation degree of microglia (a marker of inflammation in brain disease animal model) expressed in the lumbar ventral horn of G93A mouse were evaluated with TOMATO Lectin dye. In G93A mouse, number of microglia was increased and microglia was more activated compared to the wild type mouse. Treatment with 5 mg/kg/day or 20 mg/kg/day of chemical 01 decreased the increase of number and activation degree of microglia (FIG. 13F).

In the case of `O=C(O)c1cc(NCCc2ccc(C(F)(F)F)cc2)ccc1O` [chemical 01, 2-Hydroxy-5-[2-(4-trifluoromethyl-phenyl)-ethylamino]-benzoic acid], the “increase of number and activation degree of microglia” value is reported as “decreased”.
